Assay results as given in patent publication US6525001B1, “Substituted pyrimidine and pyridine herbicides” (Mid-American Commercialization Corporation, priority 1997, dated 2003).

Experiments:
Assay type in all cases: in vivo
[1] = tested on: bedstraw (Galium aparine); assay: Test B pre-/postemergence; set-up: key: 0 is no effect; 10 is complete control
Procedure, shortened: (§1)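 Response scores run from 0, meaning no effect, to 10, meaning complete control, assigned by eye relative to controls twelve to sixteen days after spraying. Treatment was both preemergence on planted seed and postemergence on plants at the 1- to 4-leaf stage.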

[2] = tested on: broadleaf signalgrass (Brachiaria decumbens); assay: Test B pre-/postemergence; set-up: key: 0 is no effect; 10 is complete control
Procedure, shortened: as §1

[3] = tested on: cocklebur (Xanthium strumarium); assay: Test B pre-/postemergence; set-up: key: 0 is no effect; 10 is complete control
Procedure, shortened: as §1

corn (Zea mays) = assay: Test B pre-/postemergence; set-up: key: 0 is no effect; 10 is complete control
Procedure, shortened: as §1

[4] = tested on: giant foxtail (Setaria faberii); assay: Test B pre-/postemergence; set-up: key: 0 is no effect; 10 is complete control
Procedure, shortened: as §1

[5] = tested on: momingglory (Ipomoea hederacea); assay: Test B pre-/postemergence; set-up: key: 0 is no effect; 10 is complete control
Procedure, shortened: as §1

[6] = tested on: pigweed (Amaranthus retroflexus); assay: Test B pre-/postemergence; set-up: key: 0 is no effect; 10 is complete control
Procedure, shortened: as §1

rape (Brassica napus) = assay: Test B pre-/postemergence; set-up: key: 0 is no effect; 10 is complete control
Procedure, shortened: as §1

[7] = tested on: sugar beet (Beta vulgaris); assay: Test B pre-/postemergence; set-up: key: 0 is no effect; 10 is complete control
Procedure, shortened: as §1

[8] = tested on: velvetleaf (Abutilon theophrasti); assay: Test B pre-/postemergence; set-up: key: 0 is no effect; 10 is complete control
Procedure, shortened: as §1

[9] = tested on: wheat (Triticum aestivum); assay: Test B pre-/postemergence; set-up: key: 0 is no effect; 10 is complete control
Procedure, shortened: as §1

[10] = tested on: bamyardgrass (Echinochloa crus-galli); assay: Test B flood test
Procedure, shortened: (§2)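 Each value is a visual injury score relative to controls, with 10 meaning complete control and 0 no effect. Evaluation took place twelve to sixteen days after the 2-leaf-stage plants were treated and kept in the greenhouse.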

[11] = tested on: duck salad (Heteranthera limosa); assay: Test B flood test
Procedure, shortened: as §2

rice (Oryza sativa) = assay: Test B flood test
Procedure, shortened: as §2

[12] = tested on: smallflower flatsedge (Cyperus difformis); assay: Test B flood test
Procedure, shortened: as §2

[13] = Rate 62 g/ha, Postemergence (flood test)
[14] = Rate 125 g/ha, Postemergence, flood test
[15] = Rate 250 g/ha, Postemergence (flood test species)

COc1cnc(-c2ccc(C(F)(F)F)cc2)nc1Cc1cccc(C(F)(F)F)c1 [Compound 23]
Plant response rating, Bedstraw ([1]; Rate 62 g/ha, Postemergence): 9 | Plant response rating, Bedstraw ([1]; Rate 125 g/ha, Postemergence): 9 | Bedstraw plant response rating ([1]; Rate 125 g/ha, Preemergence): 8 | Plant response rating, Bedstraw ([1]; Rate 250 g/ha, Postemergence): 9 | Plant response rating, Bedstraw ([1]; Rate 250 g/ha, Preemergence): 9 | Plant response rating, B. signalgrass ([2]; Rate 62 g/ha, Postemergence): 4 | B. signalgrass plant response rating ([2]; Rate 62 g/ha, Preemergence): 9 | Plant response rating, B. signalgrass ([2]; Rate 125 g/ha, Postemergence): 5 | B. signalgrass plant response rating ([2]; Rate 125 g/ha, Preemergence): 9 | Plant response rating, B. signalgrass ([2]; Rate 250 g/ha, Postemergence): 9 | Plant response rating, B. signalgrass ([2]; Rate 250 g/ha, Preemergence): 9 | Plant response rating, Cocklebur ([3]; Rate 62 g/ha, Postemergence): 9 | Cocklebur plant response rating ([3]; Rate 62 g/ha, Preemergence): 1 | Plant response rating, Cocklebur ([3]; Rate 125 g/ha, Postemergence): 10 | Cocklebur plant response rating ([3]; Rate 125 g/ha, Preemergence): 1 | Plant response rating, Cocklebur ([3]; Rate 250 g/ha, Postemergence): 10 | Plant response rating, Cocklebur ([3]; Rate 250 g/ha, Preemergence): 3 | Plant response rating, Corn (corn (Zea mays); Rate 62 g/ha, Postemergence): 2 | Corn plant response rating (corn (Zea mays); Rate 62 g/ha, Preemergence): 0 | Plant response rating, Corn (corn (Zea mays); Rate 125 g/ha, Postemergence): 3 | Corn plant response rating (corn (Zea mays); Rate 125 g/ha, Preemergence): 1 | Plant response rating, Corn (corn (Zea mays); Rate 250 g/ha, Postemergence): 3 | Plant response rating, Corn (corn (Zea mays); Rate 250 g/ha, Preemergence): 1 | Plant response rating, Giant foxtail ([4]; Rate 62 g/ha, Postemergence): 2 | Giant foxtail plant response rating ([4]; Rate 62 g/ha, Preemergence): 10 | Plant response rating, Giant foxtail ([4]; Rate 125 g/ha, Postemergence): 5 | Giant foxtail plant response rating ([4]; Rate 125 g/ha, Preemergence): 10 | Plant response rating, Giant foxtail ([4]; Rate 250 g/ha, Postemergence): 9 | Plant response rating, Giant foxtail ([4]; Rate 250 g/ha, Preemergence): 10 | Plant response rating, Morningglory ([5]; Rate 62 g/ha, Postemergence): 6 | Morningglory plant response rating ([5]; Rate 62 g/ha, Preemergence): 4 | Plant response rating, Morningglory ([5]; Rate 125 g/ha, Postemergence): 9 | Morningglory plant response rating ([5]; Rate 125 g/ha, Preemergence): 8 | Plant response rating, Morningglory ([5]; Rate 250 g/ha, Postemergence): 9 | Plant response rating, Morningglory ([5]; Rate 250 g/ha, Preemergence): 10 | Plant response rating, Redroot pigweed ([6]; Rate 62 g/ha, Postemergence): 9 | Redroot pigweed plant response rating ([6]; Rate 62 g/ha, Preemergence): 9 | Plant response rating, Redroot pigweed ([6]; Rate 125 g/ha, Postemergence): 10 | Redroot pigweed plant response rating ([6]; Rate 125 g/ha, Preemergence): 9 | Plant response rating, Redroot pigweed ([6]; Rate 250 g/ha, Postemergence): 10 | Plant response rating, Redroot pigweed ([6]; Rate 250 g/ha, Preemergence): 10 | Plant response rating, Rape (rape (Brassica napus); Rate 62 g/ha, Postemergence): 10 | Rape plant response rating (rape (Brassica napus); Rate 62 g/ha, Preemergence): 1 | Plant response rating, Rape (rape (Brassica napus); Rate 125 g/ha, Postemergence): 10 | Rape plant response rating (rape (Brassica napus); Rate 125 g/ha, Preemergence): 3 | Plant response rating, Rape (rape (Brassica napus); Rate 250 g/ha, Postemergence): 10 | Plant response rating, Rape (rape (Brassica napus); Rate 250 g/ha, Preemergence): 7 | Plant response rating, Sugarbeets ([7]; Rate 62 g/ha, Postemergence): 10 | Sugarbeets plant response rating ([7]; Rate 62 g/ha, Preemergence): 8 | Plant response rating, Sugarbeets ([7]; Rate 125 g/ha, Postemergence): 10 | Sugarbeets plant response rating ([7]; Rate 125 g/ha, Preemergence): 8 | Plant response rating, Sugarbeets ([7]; Rate 250 g/ha, Postemergence): 10 | Plant response rating, Sugarbeets ([7]; Rate 250 g/ha, Preemergence): 10 | Plant response rating, Velvetleaf ([8]; Rate 62 g/ha, Postemergence): 9 | Velvetleaf plant response rating ([8]; Rate 62 g/ha, Preemergence): 1 | Plant response rating, Velvetleaf ([8]; Rate 125 g/ha, Postemergence): 9 | Velvetleaf plant response rating ([8]; Rate 125 g/ha, Preemergence): 3 | Plant response rating, Velvetleaf ([8]; Rate 250 g/ha, Postemergence): 9 | Plant response rating, Velvetleaf ([8]; Rate 250 g/ha, Preemergence): 10 | Plant response rating, Wheat ([9]; Rate 62 g/ha, Postemergence): 3 | Wheat plant response rating ([9]; Rate 62 g/ha, Preemergence): 2 | Plant response rating, Wheat ([9]; Rate 125 g/ha, Postemergence): 4 | Wheat plant response rating ([9]; Rate 125 g/ha, Preemergence): 3 | Plant response rating, Wheat ([9]; Rate 250 g/ha, Postemergence): 5 | Plant response rating, Wheat ([9]; Rate 250 g/ha, Preemergence): 6 | Plant response rating, Barnyardgrass [10, 13]: 4 | Plant response rating, Barnyardgrass [10, 14]: 5 | Plant response rating, Barnyardgrass [10, 15]: 6 | Plant response rating, Ducksalad [11, 13]: 2 | Plant response rating, Ducksalad [11, 14]: 4 | Plant response rating, Ducksalad [11, 15]: 6 | Plant response rating, Rice (rice (Oryza sativa); [13]): 3 | Plant response rating, Rice (rice (Oryza sativa); [14]): 4 | Plant response rating, Rice (rice (Oryza sativa); [15]): 5 | Plant response rating, S. Flatsedge [12, 13]: 4 | Plant response rating, S. Flatsedge [12, 14]: 8 | Plant response rating, S. Flatsedge [12, 15]: 9
